Laboratory results published in patent US11370798B2 (Vertex Pharmaceuticals Incorporated, priority 2012, dated 2022).

test system: HCT116 colorectal cancer cells; experiment: Cisplatin sensitization assay (96 h cell viability MTS); type: cell-based; details: compound and Cisplatin added simultaneously, Cisplatin sensitization value;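 also: Test-compound concentration that lowers the Cisplatin IC50 by a set fold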
Procedure, shortened: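 Viability read by MTS (1 h at 37° C) after 96 h co-exposure at 37° C, 5% CO2. Test compound and cisplatin were dosed simultaneously in a full concentration matrix, each 2-fold serially diluted from 10 μM final; sensitization values binned in μM.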

Row | SMILES | Cisplatin Sensitization Assay
1 | Cc1nonc1N1CCN(c2ccncc2NC(=O)c2c(N)nn3cc(F)cnc23)CC1 [I-N-260, 2-amino-6-fluoro-N-(4-(4-(4-methyl-1,2,5-oxadiazol-3-yl)piperazin-1-yl)pyridin-3-yl)pyrazolo[1,5-a]pyrimidine-3-carboxamide] | +++ (Cisplatin sensitization value of <0.02 μM)
2 | CN1CCN(C(=O)c2ccc(-c3ccncc3NC(=O)c3c(N)nn4cc(F)cnc34)cn2)CC1 [I-C-19, 2-amino-6-fluoro-N-(6-(4-methylpiperazine-1-carbonyl)-[3,4′-bipyridin]-3′-yl)pyrazolo[1,5-a]pyrimidine-3-carboxamide] | ++ (Cisplatin sensitization value>0.02 μM but <0.2 μM)
3 | Nc1nn2cc(F)cnc2c1C(=O)Nc1cnccc1-c1ccc(S(=O)(=O)N2CCC2)cc1 [I-C-64, 2-amino-N-(4-(4-(azetidin-1-ylsulfonyl)phenyl)pyridin-3-yl)-6-fluoropyrazolo[1,5-a]pyrimidine-3-carboxamide] | +++ (Cisplatin sensitization value of <0.02 μM)
4 | Cn1cc(-c2ccncc2NC(=O)c2c(N)nn3cc(F)cnc23)ccc1=O [I-C-59, 2-amino-6-fluoro-N-(1-methyl-6-oxo-1,6-dihydro-[3,4′-bipyridin]-3′-yl)pyrazolo[1,5-a]pyrimidine-3-carboxamide] | ++ (Cisplatin sensitization value>0.02 μM but <0.2 μM)
5 | CN(C)C1CCN(c2ccncc2NC(=O)c2c(N)nn3cc(Cl)cnc23)CC1 [I-N-37, 2-amino-6-chloro-N-(4-(4-(dimethylamino)piperidin-1-yl)pyridin-3-yl)pyrazolo[1,5-a]pyrimidine-3-carboxamide] | ++ (Cisplatin sensitization value>0.02 μM but <0.2 μM)
6 | Nc1nn2cc(F)cnc2c1C(=O)Nc1cnccc1-c1cccnc1F [I-C-35, 2-amino-6-fluoro-N-(2-fluoro-[3,4′-bipyridin]-3′-yl)pyrazolo[1,5-a]pyrimidine-3-carboxamide] | +++ (Cisplatin sensitization value of <0.02 μM)
7 | Cc1ncn(C)c1-c1ccncc1NC(=O)c1c(N)nn2cc(F)cnc12 [I-C-78, 2-amino-N-(4-(1,4-dimethyl-1H-imidazol-5-yl)pyridin-3-yl)-6-fluoropyrazolo[1,5-a]pyrimidine-3-carboxamide] | ++ (Cisplatin sensitization value>0.02 μM but <0.2 μM)
8 | Cn1ccc2c(NC(=O)c3c(N)nn4cc(F)cnc34)cncc21 [I-C-74, 2-amino-6-fluoro-N-(1-methyl-1H-pyrrolo[2,3-c]pyridin-4-yl)pyrazolo[1,5-a]pyrimidine-3-carboxamide] | + (Cisplatin sensitization value>0.2 μM but <5 μM)
9 | Nc1nn2cc(F)cnc2c1C(=O)Nc1cnccc1OC1CCS(=O)(=O)CC1 [I-O-45, 2-amino-N-(4-((1,1-dioxidotetrahydro-2H-thiopyran-4-yl)oxy)pyridin-3-yl)-6-fluoropyrazolo[1,5-a]pyrimidine-3-carboxamide] | +++ (Cisplatin sensitization value of <0.02 μM)
10 | CN(C)[C@@H]1CCN(C(=O)C2CCN(c3c(F)cncc3NC(=O)c3c(N)nn4cc(F)cnc34)CC2)C1 [I-G-11, (R)-2-amino-N-(4-(4-(3-(dimethylamino)pyrrolidine-1-carbonyl)piperidin-1-yl)-5-fluoropyridin-3-yl)-6-fluoropyrazolo[1,5-a]pyrimidine-3-carboxamide] | +++ (Cisplatin sensitization value of <0.02 μM)
11 | Cn1ccc(-c2ccncc2NC(=O)c2c(N)nn3cc(F)cnc23)n1 [I-C-68, 2-amino-6-fluoro-N-(4-(1-methyl-1H-pyrazol-3-yl)pyridin-3-yl)pyrazolo[1,5-a]pyrimidine-3-carboxamide] | + (Cisplatin sensitization value>0.2 μM but <5 μM)
12 | Nc1nn2cc(Cl)cnc2c1C(=O)Nc1cnccc1N1CCC(N2CCOCC2)CC1 [I-N-104, 2-amino-6-chloro-N-(4-(4-morpholinopiperidin-1-yl)pyridin-3-yl)pyrazolo[1,5-a]pyrimidine-3-carboxamide] | +++ (Cisplatin sensitization value of <0.02 μM)
13 | Nc1nn2cc(F)cnc2c1C(=O)Nc1cncc(F)c1N1CCC(C(=O)NCCN2CCC2)CC1 [I-G-42, 2-amino-N-(4-(4-((2-(azetidin-1-yl)ethyl)carbamoyl)piperidin-1-yl)-5-fluoropyridin-3-yl)-6-fluoropyrazolo[1,5-a]pyrimidine-3-carboxamide] | +++ (Cisplatin sensitization value of <0.02 μM)
14 | Nc1nn2cc(F)cnc2c1C(=O)Nc1cncc(F)c1N1CCC(C(=O)N2CCNC3(CC3)C2)CC1 [I-G-28, N-(4-(4-(4,7-diazaspiro[2.5]octane-7-carbonyl)piperidin-1-yl)-5-fluoropyridin-3-yl)-2-amino-6-fluoropyrazolo[1,5-a]pyrimidine-3-carboxamide] | +++ (Cisplatin sensitization value of <0.02 μM)
15 | N#CCc1cnc2c(C(=O)Nc3cnccc3OC3CCNCC3)c(N)nn2c1 [I-O-84, 2-amino-6-(cyanomethyl)-N-(4-(piperidin-4-yloxy)pyridin-3-yl)pyrazolo[1,5-a]pyrimidine-3-carboxamide] | ++ (Cisplatin sensitization value>0.02 μM but <0.2 μM)
16 | CN1CCC(Oc2c(Cl)cncc2NC(=O)c2c(N)nn3cc(Cl)cnc23)CC1 [I-O-46, 2-amino-6-chloro-N-(5-chloro-4-((1-methylpiperidin-4-yl)oxy)pyridin-3-yl)pyrazolo[1,5-a]pyrimidine-3-carboxamide] | + (Cisplatin sensitization value>0.2 μM but <5 μM)
17 | Nc1nn2cc(F)cnc2c1C(=O)Nc1cnccc1O[C@H]1Cc2nccn2C1 [I-O-16, (S)-2-amino-N-(4-((6,7-dihydro-5H-pyrrolo[1,2-a]imidazol-6-yl)oxy)pyridin-3-yl)-6-fluoropyrazolo[1,5-a]pyrimidine-3-carboxamide] | +++ (Cisplatin sensitization value of <0.02 μM)
18 | CN1CC[C@@H](OC2CCN(c3ccncc3NC(=O)c3c(N)nn4cc(F)cnc34)CC2)C1 [I-N-131] | +++ (Cisplatin sensitization value of <0.02 μM)
19 | CN1CCC(C(=O)N2CCN(c3c(F)cncc3NC(=O)c3c(N)nn4cc(F)cnc34)CC2)C1 (centres unmarked) [I-N-156, 2-amino-6-fluoro-N-(5-fluoro-4-(4-(1-methylpyrrolidine-3-carbonyl)piperazin-1-yl)pyridin-3-yl)pyrazolo[1,5-a]pyrimidine-3-carboxamide] | +++ (Cisplatin sensitization value of <0.02 μM)
20 | CN1CCN(c2ccncc2NC(=O)c2c(N)nn3cc(Cl)cnc23)CC1CO (centres unmarked) [I-N-63, 2-amino-6-chloro-N-(4-(3-(hydroxymethyl)-4-methylpiperazin-1-yl)pyridin-3-yl)pyrazolo[1,5-a]pyrimidine-3-carboxamide] | ++ (Cisplatin sensitization value>0.02 μM but <0.2 μM)
21 | CN1CCN(C(=O)C2(C)CCN(c3c(F)cncc3NC(=O)c3c(N)nn4cc(F)cnc34)CC2)CC1 [I-G-54, 2-amino-6-fluoro-N-(5-fluoro-4-(4-methyl-4-(4-methylpiperazine-1-carbonyl)piperidin-1-yl)pyridin-3-yl)pyrazolo[1,5-a]pyrimidine-3-carboxamide] | +++ (Cisplatin sensitization value of <0.02 μM)
22 | CN(C)C(=O)C1CN(c2ccncc2NC(=O)c2c(N)nn3cc(F)cnc23)CCO1 (centres unmarked) [I-N-234, 4-(3-(2-amino-6-fluoropyrazolo[1,5-a]pyrimidine-3-carboxamido)pyridin-4-yl)-N,N-dimethylmorpholine-2-carboxamide] | + (Cisplatin sensitization value>0.2 μM but <5 μM)
23 | CN1CC2CC1CN2C(=O)C1CCN(c2c(F)cncc2NC(=O)c2c(N)nn3cc(F)cnc23)CC1 (centres unmarked) [I-G-53, 2-amino-6-fluoro-N-(5-fluoro-4-(4-(5-methyl-2,5-diazabicyclo[2.2.1]heptane-2-carbonyl)piperidin-1-yl)pyridin-3-yl)pyrazolo[1,5-a]pyrimidine-3-carboxamide] | +++ (Cisplatin sensitization value of <0.02 μM)
24 | Nc1nn2cc(F)cnc2c1C(=O)Nc1cnccc1C1CCN(S(=O)(=O)C2CC2)CC1 [I-C-47, 2-amino-N-(4-(1-(cyclopropylsulfonyl)piperidin-4-yl)pyridin-3-yl)-6-fluoropyrazolo[1,5-a]pyrimidine-3-carboxamide] | +++ (Cisplatin sensitization value of <0.02 μM)
25 | Nc1nn2cc(F)cnc2c1C(=O)Nc1cnccc1N1CCN2C(=O)COCC2C1 (centres unmarked) [I-N-136, 2-amino-6-fluoro-N-(4-(4-oxohexahydropyrazino[2,1-c][1,4]oxazin-8(1H)-yl)pyridin-3-yl)pyrazolo[1,5-a]pyrimidine-3-carboxamide] | ++ (Cisplatin sensitization value>0.02 μM but <0.2 μM)
26 | Nc1nn2cc(F)cnc2c1C(=O)Nc1cnccc1-c1ccccn1 [I-C-60, N-([2,4′-bipyridin]-3′-yl)-2-amino-6-fluoropyrazolo[1,5-a]pyrimidine-3-carboxamide] | ++ (Cisplatin sensitization value>0.02 μM but <0.2 μM)
27 | N#CCc1cnc2c(C(=O)Nc3cnccc3O[C@H]3CCNC3)c(N)nn2c1 [I-O-86, (S)-2-amino-6-(cyanomethyl)-N-(4-(pyrrolidin-3-yloxy)pyridin-3-yl)pyrazolo[1,5-a]pyrimidine-3-carboxamide] | ++ (Cisplatin sensitization value>0.02 μM but <0.2 μM)
28 | CN1C(=O)CCC12CCN(c1ccncc1NC(=O)c1c(N)nn3cc(F)cnc13)CC2 [I-N-235, 2-amino-6-fluoro-N-(4-(1-methyl-2-oxo-1,8-diazaspiro[4.5]decan-8-yl)pyridin-3-yl)pyrazolo[1,5-a]pyrimidine-3-carboxamide] | ++ (Cisplatin sensitization value>0.02 μM but <0.2 μM)
29 | Nc1nn2cc(F)cnc2c1C(=O)Nc1cncc(F)c1N1CCC(S(=O)(=O)N2CCN3CCC2CC3)CC1 [I-N-273, N-(4-(4-(1,4-diazabicyclo[3.2.2]nonan-4-ylsulfonyl)piperidin-1-yl)-5-fluoropyridin-3-yl)-2-amino-6-fluoropyrazolo[1,5-a]pyrimidine-3-carboxamide] | +++ (Cisplatin sensitization value of <0.02 μM)
